In patent US20120184006A1, “Reductase Enzymes” (UTAH STATE UNIVERSITY, priority 2011, published 2012):

Experiments:
[1] = molecular target: T1, fatty acyl-CoA reductase (FACoAR) from M. aquaeolei VT8 (Marinobacter nauticus (Marinobacter aquaeolei), UniProt A1U3L3); assay: Continuous spectrophotometric DTNB assay (release of free CoA); type: biochemical; details: for Rate of Reaction (nmol NTB^2− min^−1 mg protein^−1): 6 μM of the respective CoA as substrate; for % Specific Activity of Palmitoyl-CoA: percent of the specific activity of palmitoyl-CoA, 6 μM substrate
T1 sequence (A1U3L3 1-661): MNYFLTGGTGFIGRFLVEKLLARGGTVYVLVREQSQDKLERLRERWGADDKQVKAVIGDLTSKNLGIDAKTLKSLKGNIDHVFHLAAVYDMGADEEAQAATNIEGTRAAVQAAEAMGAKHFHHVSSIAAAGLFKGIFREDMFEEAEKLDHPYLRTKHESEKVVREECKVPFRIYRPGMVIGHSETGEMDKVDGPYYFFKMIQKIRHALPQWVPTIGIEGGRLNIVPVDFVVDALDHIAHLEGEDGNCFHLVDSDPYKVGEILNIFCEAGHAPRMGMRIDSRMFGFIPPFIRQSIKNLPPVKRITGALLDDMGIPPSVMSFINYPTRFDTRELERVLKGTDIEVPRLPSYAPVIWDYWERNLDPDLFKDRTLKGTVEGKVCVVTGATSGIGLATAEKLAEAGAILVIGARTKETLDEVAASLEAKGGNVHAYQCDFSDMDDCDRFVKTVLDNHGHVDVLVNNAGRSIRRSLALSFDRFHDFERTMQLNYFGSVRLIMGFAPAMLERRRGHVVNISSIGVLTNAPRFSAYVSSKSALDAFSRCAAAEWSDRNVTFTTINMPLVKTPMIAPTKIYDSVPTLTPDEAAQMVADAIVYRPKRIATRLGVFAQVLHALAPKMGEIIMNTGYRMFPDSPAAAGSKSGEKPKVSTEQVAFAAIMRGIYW
Protocol: Buffers and solutions were prepared as described above for NADPH assays. Each assay was conducted by adding 75 μL of the 2 mg/mL NADPH stock solution in buffer, 58 μg of protein, and 10 μL of a 10 mg/mL solution of DTNB in DMSO, varying concentrations of acyl-CoA and buffer to bring the volume to 1 mL. Reduction of acyl-CoA substrate was monitored by following the increase of the 2-nitro-5-thiobenzoate (NTB^2−) dianion concentration at 412 nm. […] These initial rates were used to calculate the apparent K, and Vmax values using the Igor Pro (Wavemetrics, Lake Oswego, Oreg.) software package fitting the initial rates to the Hill equation (Equation 1) where v is the initial velocity, Vmax is the maximum calculated velocity, [S]^n is the concentration of substrate and n is the Hill coefficient, K0.5^n is the approximation of Km or the approximate substrate concentration at which half of Vmax is obtained at a specific value of the Hill coefficient n. In the case of enzyme inhibition, a modified version of the Hill equation allowing for cooperative inhibition (Equation 2) where all of the coefficients are defined as for the Hill equation and the additional [i]^n is the concentration of inhibitor and n is the Hill coefficient. The Ki^n is the approximate concentration of inhibitor it takes to double the K0.5 at a specific value of the Hill coefficient n.

[2] = system: FACoAR from M. aquaeolei VT8; assay: Initial activity assay, products identified by TLC and GC; type: biochemical, Marinobacter aquaeolei VT8; details: 200 μM substrate, NADPH
Protocol: Initial activity assays were conducted using thin layer chromatography (TLC) and a gas chromatography (GC) assay similar to that described previously (29). To test activity, 0.3 mg of protein was added to a reaction vessel along with 200 μM palmitoleyl-CoA and 800 μM NADPH, NADH, NADP^+, NAD^+ in reaction buffer containing 20 mM Tris-HCl pH 7.0 and 50 mM NaCl. Reactions were allowed to proceed for 1 hr before quenching by the addition of 2 mL of hexane. The hexane water mixture was vortexed vigorously for 30 seconds before centrifuging to separate phases. The hexane phase was removed to a clean container and the solvent was removed under a stream of argon. […] The TLC plate was developed in a 2:15:90 volumetric ratio of glacial acetic acid:ethyl ether:hexane. After development, visualization was performed in a sealed jar with iodine crystals for 10 min. The TLC results were verified by GC analysis of the sample prepared in the same way and compared to retention times of known standards.

[3] = molecular target: T1, fatty acyl-CoA reductase (FACoAR) from M. aquaeolei VT8; assay: Continuous spectrophotometric NADPH assay (decrease of NADPH at 340 nm); type: biochemical; details: FIG. 5, NADPH assay, acyl-CoA substrate
Protocol: All assays were conducted in a total volume of 1 mL. A buffer containing 50 mM NaCl, 20 mM Tris-HCl pH 7.0, and 0.5 mg/mL BSA was prepared along with a 1 mM stock of aldehyde dissolved in dimethyl sulfoxide (DMSO) or a 0.1 mM stock of the acyl-CoA, and […] NADPH. All components including protein were degassed in sealed vials and placed under an argon atmosphere. NADPH was degassed as the solid prior to the addition of degassed buffer. Each assay was conducted by adding 75 μL of the NADPH stock, 58 μg protein for acyl-CoA assays or 15 μg protein for aldehyde assays, varying concentrations of aldehyde or acyl-CoA and buffer to bring the final volume to 1 mL. Each sample was continuously monitored for the decrease of NADPH at 340 nm on a Varian 50 Bio UV-visible spectrophotometer (Walnut Creek, Calif.). Initial rates were calculated in Excel using the linear initial rates of reaction obtained from the spectrophotometric assays by obtaining the slope from the best. In line and calculating nmol of NADPH oxidized per second. (Microsoft, Redmond, Wash.). These initial rates were used to calculate Km and Vmax values using the Igor Pro software package (Wavemetrics, Lake Oswego, Oreg.) fitting the initial rates to the Hill equation (31). NADPH specific activity assays were conducted identically as described above using a fixed 60 μM concentration of the various aldehyde substrates or 6 μM of the various acyl-CoA substrates.

[4] = molecular target: T1, fatty acyl-CoA reductase (FACoAR) from M. aquaeolei VT8; assay: Palmitoyl CoA inhibition of fatty aldehyde (cis-11-hexadecenal) reduction; type: biochemical; details: competitive inhibition of cis-11-hexadecenal reduction; 0, 1, 2, 4 μM inhibitor; fit to equation 2; read-out: apparent Ki
Protocol: The (◯) denote assays performed with 0 μM palmitoyl CoA, ([…]) denote assays performed with 1 palmitoyl CoA, (□) denote assays performed with 2 μM palmitoyl CoA, and (Δ) denote assays performed with 4 μM palmitoyl CoA. Specific activities are plotted in units of nmol NADP^+ min^−1 mg protein^−1. All assays were conducted in triplicate and are shown with error bars indicating SEM fit to equation 1 in the materials and methods section. The apparent Ki was determined by fitting all four data sets to equation 2 in the materials and methods.
All assays were conducted in a total volume of 1 mL. A buffer containing 50 mM NaCl, 20 mM Tris-HCl pH 7.0, and 0.5 mg/mL BSA was prepared along with a 1 mM stock of aldehyde dissolved in dimethyl sulfoxide (DMSO) or a 0.1 mM stock of the acyl-CoA, and 2.0 trig/mL NADPH. […] Each sample was continuously monitored for the decrease of NADPH at 340 nm on a Varian 50 Bio UV-visible spectrophotometer (Walnut Creek, Calif.). Initial rates were calculated in Excel using the linear initial rates of reaction obtained from the spectrophotometric assays by obtaining the slope from the best. […]
Buffers and solutions were prepared as described above for NADPH assays. […] Reduction of acyl-CoA substrate was monitored by following the increase of the 2-nitro-5-thiobenzoate (NTB^2−) dianion concentration at 412 nm. […]

| Structure (SMILES) | Rate of Reaction (nmol NTB^2− min^−1 mg protein^−1) [1] | % Specific Activity of Palmitoyl-CoA [1] | detectable product of reduction [2] | Vmax when CoA release was monitored [1] | maximal specific activity (CoA release) [1] | n (Hill coefficient) ([1]; FIG. 5, DTNB assay) | Vmax ([1]; FIG. 5, DTNB assay, release of free CoA, Hill fit, substrate) | n (Hill coefficient) [3] | Vmax ([3]; Hill fit) | Ki [4] |
| --- | --- | --- | --- | --- | --- | --- | --- | --- | --- | --- |
| CCCCCC/C=C\CCCCCCCC(=O)SCCNC(=O)CCNC(=O)[C@H](O)C(C)(C)COP(=O)(O)OP(=O)(O)OC[C@H]1O[C@@H](n2cnc3c(N)ncnc32)[C@H](O)[C@@H]1OP(=O)(O)O [Palmitoleyl-CoA] | 53.7 ± 1.1 nmol NTB^2− min^−1 mg protein^−1 | 93% | palmitoleyl alcohol |  |  |  |  |  |  |  |
| CCCCCCCCCCCCCCCC(=O)SCCNC(=O)CCNC(=O)[C@H](O)C(C)(C)COP(=O)(O)OP(=O)(O)OC[C@H]1O[C@@H](n2cnc3c(N)ncnc32)[C@H](O)[C@@H]1OP(=O)(O)O [Palmitoyl-CoA] | 54.7 ± 4.7 nmol NTB^2− min^−1 mg protein^−1 | 100% |  | ~180 nmol/min/mg | 115 nmol of NTB/min/mg protein | 2.8±0.7 | 115±7 nmol NTB^−2 min^−1 mg of protein^−1 | 2.6±0.3 | 197±8 nmol NADP^+ min^−1 mg of protein^−1 | 1900 ± 260 nM |
